Experimental data reported in PubChem BioAssay AID330 (DTP/NCI, 2004).
Several values for one entry are separate records, joined by “and”; a condition that tells them apart may be missing. Equal values may be shown once. Toxic doses and inconclusive results are not listed. How the source made its calls: active means survival T/C of 150% or more; inactive means T/C below 125% in these data.

System: P388 leukemia ip, CD2F1 mice, survival T/C
Test: NCI In Vivo Anticancer Drug Screen. Data for tumor model P388 Leukemia (intraperitoneal) in CD2F1 (CDF1) mice
Details: endpoint: median survival time, higher = longer survival
Outline: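 Mice carrying the transplanted tumor received test compound or vehicle. Survival was recorded in each group, and the value is the treated-group measurement divided by that of the vehicle-treated control group.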

[1] = dose: 100.0 mg/kg/injection, schedule: Q04DX003 (ip), vehicle: saline
[2] = dose: 200.0 mg/kg/injection, schedule: Q04DX003 (ip), vehicle: saline
[3] = dose: 400.0 mg/kg/injection, schedule: Q04DX003 (ip), vehicle: saline
[4] = dose: 50.0 mg/kg/injection, schedule: Q01DX005 (ip), vehicle: saline with Tween-80
[5] = dose: 50.0 mg/kg/injection, schedule: Q04DX003 (ip), vehicle: Klucel (hydroxypropylcellulose) (HPC)
[6] = dose: 100.0 mg/kg/injection, schedule: Q04DX003 (ip), vehicle: Klucel (hydroxypropylcellulose) (HPC)
[7] = dose: 60.0 mg/kg/injection, schedule: Q01DX005 (ip), vehicle: saline with Tween-80
[8] = dose: 120.0 mg/kg/injection, schedule: Q01DX005 (ip), vehicle: saline with Tween-80
[9] = dose: 50.0 mg/kg/injection, schedule: Q01DX005 (ip), vehicle: Klucel (hydroxypropylcellulose) (HPC)
[10] = dose: 100.0 mg/kg/injection, schedule: Q01DX005 (ip), vehicle: Klucel (hydroxypropylcellulose) (HPC)
[11] = dose: 200.0 mg/kg/injection, schedule: Q01DX005 (ip), vehicle: Klucel (hydroxypropylcellulose) (HPC)
[12] = dose: 50.0 mg/kg/injection, schedule: Q01DX005 (ip), vehicle: saline
[13] = dose: 100.0 mg/kg/injection, schedule: Q01DX005 (ip), vehicle: saline

Measured: T/C

O=NNc1nc2c(Cl)cccc2s1
inactive: dose: 1.56 mg/kg/injection, schedule: Q01DX009 (ip), vehicle: water 102 % of control | dose: 3.12 mg/kg/injection, schedule: Q01DX009 (ip), vehicle: water 101 % of control | dose: 3.15 mg/kg/injection, schedule: Q01DX009 (ip), vehicle: water 102 % of control | dose: 6.25 mg/kg/injection, schedule: Q01DX009 (ip), vehicle: water 99 % of control and 100 % of control | dose: 12.5 mg/kg/injection, schedule: Q01DX009 (ip), vehicle: water 99 % of control and 114 % of control | dose: 25.0 mg/kg/injection, schedule: Q01DX009 (ip), vehicle: water 100 % of control and 111 % of control | dose: 50.0 mg/kg/injection, schedule: Q01DX009 (ip), vehicle: water 106 % of control

C[N+]1=CN(S(=O)(=O)C2C=CC=CC=C2)C(C)(C)C1(C)C
inactive: [1] 103 % of control | [2] 103 % of control | [3] 99 % of control

CC(C)OC(=O)Cn1c(=O)c2nnnn2c2ccccc21
inactive: dose: 100.0 mg/kg/injection, schedule: Q04DX002 (ip), vehicle: Klucel (hydroxypropylcellulose) (HPC) 93 % of control | dose: 200.0 mg/kg/injection, schedule: Q04DX002 (ip), vehicle: Klucel (hydroxypropylcellulose) (HPC) 98 % of control | dose: 400.0 mg/kg/injection, schedule: Q04DX002 (ip), vehicle: Klucel (hydroxypropylcellulose) (HPC) 93 % of control

CCCCCCCCCCCC(=O)NCCOCCOCCOCCOCCOCCOCCOCCOCCO (tested in a mixture with another compound)
inactive: [4] 98 % of control | dose: 100.0 mg/kg/injection, schedule: Q01DX005 (ip), vehicle: saline with Tween-80 102 % of control | dose: 200.0 mg/kg/injection, schedule: Q01DX005 (ip), vehicle: saline with Tween-80 96 % of control

CC(=O)OCC1OC(n2cnc3c(=S)nc(N)[nH]c32)C(OC(C)=O)C1OC(C)=O (stereo not given)
inactive: dose: 12.5 mg/kg/injection, schedule: Q04DX003 (ip), vehicle: saline with Tween-80 118 % of control | dose: 25.0 mg/kg/injection, schedule: Q01DX009 (ip), vehicle: saline with Tween-80 122 % of control | dose: 50.0 mg/kg/injection, schedule: Q01DX009 (ip), vehicle: saline with Tween-80 113 % of control | dose: 300.0 mg/kg/injection, schedule: Q04DX003 (ip), vehicle: saline with Tween-80 100 % of control

CS(=O)(=O)OCC(O)C(O)C(OS(C)(=O)=O)C(O)COS(C)(=O)=O (stereo not given)
inactive: [5] 100 % of control | [6] 100 % of control

CN(C)CCOc1ccc2c(c1)C1=NN(c3ccccc3)C(=O)CC1CO2 (stereo not given)
inactive: [7] 103 % of control | [8] 99 % of control

CCO/C(C)=N\O
inactive: dose: 25.0 mg/kg/injection, schedule: Q04DX003 (ip), vehicle: Klucel (hydroxypropylcellulose) (HPC) 98 % of control | dose: 50.0 mg/kg/injection, schedule: Q01DX009 (ip), vehicle: saline 103 % of control | [5] 98 % of control | dose: 100.0 mg/kg/injection, schedule: Q01DX009 (ip), vehicle: saline 97 % of control | [6] 99 % of control | dose: 200.0 mg/kg/injection, schedule: Q01DX009 (ip), vehicle: saline 101 % of control | dose: 200.0 mg/kg/injection, schedule: Q04DX003 (ip), vehicle: Klucel (hydroxypropylcellulose) (HPC) 99 % of control

COc1cccc(C(=O)C(CN(C)C)CN(C)C)c1
inactive: dose: 3.12 mg/kg/injection, schedule: Q01DX009 (ip), vehicle: saline 100 % of control and 105 % of control | dose: 3.13 mg/kg/injection, schedule: Q01DX009 (ip), vehicle: saline 106 % of control | dose: 6.25 mg/kg/injection, schedule: Q01DX009 (ip), vehicle: saline 103 % of control and 115 % of control and 97 % of control | dose: 12.5 mg/kg/injection, schedule: Q01DX009 (ip), vehicle: saline 108 % of control and 112 % of control and 123 % of control | dose: 25.0 mg/kg/injection, schedule: Q01DX009 (ip), vehicle: saline 103 % of control and 123 % of control

COc1ccc(CSC(=S)Nc2ccc(Cl)c([N+](=O)[O-])c2)cc1
inactive: dose: 50.0 mg/kg/injection, schedule: Q01DX009 (ip), vehicle: suspension in saline 108 % of control | dose: 100.0 mg/kg/injection, schedule: Q01DX009 (ip), vehicle: suspension in saline 99 % of control | dose: 200.0 mg/kg/injection, schedule: Q01DX009 (ip), vehicle: suspension in saline 99 % of control

CC(C)(C)COCC(O)Cn1cnc2c(N)ncnc21 (stereo not given)
inactive: [9] 100 % of control | [10] 97 % of control | [11] 91 % of control

CCN(CC)CCOCCCNc1ccnc2cc(Cl)ccc12
inactive: [12] 100 % of control | [13] 103 % of control

COc1ccc2c(c1)[C@]1(C)CCN(C)[C@@H]1N2C
inactive: dose: 12.5 mg/kg/injection, schedule: Q01DX005 (ip), vehicle: saline 105 % of control | dose: 25.0 mg/kg/injection, schedule: Q01DX005 (ip), vehicle: saline 98 % of control | [12] 105 % of control

C=CC1(C)CCC(C(C)C(=O)/C=C/C(C)(C)O)O1 (stereo not given)
inactive: dose: 22.0 mg/kg/injection, schedule: Q01DX005 (ip), vehicle: Klucel (hydroxypropylcellulose) (HPC) 105 % of control | dose: 44.0 mg/kg/injection, schedule: Q01DX005 (ip), vehicle: Klucel (hydroxypropylcellulose) (HPC) 113 % of control | dose: 88.0 mg/kg/injection, schedule: Q01DX005 (ip), vehicle: Klucel (hydroxypropylcellulose) (HPC) 114 % of control | dose: 176.0 mg/kg/injection, schedule: Q01DX005 (ip), vehicle: Klucel (hydroxypropylcellulose) (HPC) 118 % of control

COC1=CC=C2CC(=C1)CCC1C2CCC2(C)C(=O)CCC12 (stereo not given)
inactive: [9] 100 % of control | [10] 96 % of control | [11] 91 % of control

COc1ccc(C(C)=O)cc1OC
inactive: [1] 100 % of control | [2] 100 % of control | [3] 100 % of control

CCOC(OCC)C(C)(C)CNC
inactive: dose: 100.0 mg/kg/injection, schedule: Q01DX001 (ip), vehicle: saline sonified 109 % of control | dose: 200.0 mg/kg/injection, schedule: Q01DX001 (ip), vehicle: saline sonified 113 % of control

Fc1nn2ccccc2c1C(F)(F)F
inactive: [9] 99 % of control | [10] 104 % of control | [11] 100 % of control

COc1ccc(OC)c2c1CCC(O)(C#N)C2 (stereo not given)
inactive: dose: 3.13 mg/kg/injection, schedule: Q01DX009 (ip), vehicle: other 100 % of control and 101 % of control | dose: 6.25 mg/kg/injection, schedule: Q01DX009 (ip), vehicle: other 100 % of control and 102 % of control | dose: 12.5 mg/kg/injection, schedule: Q01DX009 (ip), vehicle: other 101 % of control

O=C1CN(N2CCOCC2)CC(=O)N2CCCCN12
inactive: [12] 100 % of control | [13] 109 % of control | dose: 200.0 mg/kg/injection, schedule: Q01DX005 (ip), vehicle: saline 109 % of control

CC1(C)COC(c2cccc3c2C2C=CC3O2)=N1 (stereo not given)
inactive: [7] 92 % of control | [8] 97 % of control | dose: 240.0 mg/kg/injection, schedule: Q01DX005 (ip), vehicle: saline with Tween-80 108 % of control

FC(F)(F)c1ccc(Cl)c(N=Cc2ccc(C=Nc3cc(C(F)(F)F)ccc3Cl)cc2)c1
inactive: dose: 50.0 mg/kg/injection, schedule: Q01DX009 (ip), vehicle: Klucel (hydroxypropylcellulose) (HPC) 91 % of control | dose: 100.0 mg/kg/injection, schedule: Q01DX009 (ip), vehicle: Klucel (hydroxypropylcellulose) (HPC) 98 % of control

C=C1C(=O)OC2/C=C(\C)CC/C=C(\C=O)C(OC(=O)C(C)C)C(OC(=O)C(C)(C)O)C12 (stereo not given)
inactive: dose: 5.0 mg/kg/injection, schedule: Q01DX009 (ip), vehicle: other 116 % of control | dose: 10.0 mg/kg/injection, schedule: Q01DX009 (ip), vehicle: other 112 % of control | dose: 20.0 mg/kg/injection, schedule: Q01DX009 (ip), vehicle: other 112 % of control

COC(=O)C(CS[C@@H]1CCCC[C@H]1O)NC(C)=O (stereo not given in full)
inactive: dose: 40.0 mg/kg/injection, schedule: Q01DX005 (ip), vehicle: saline 92 % of control | dose: 60.0 mg/kg/injection, schedule: Q01DX005 (ip), vehicle: saline 96 % of control | dose: 120.0 mg/kg/injection, schedule: Q01DX005 (ip), vehicle: saline 96 % of control

CN(C)CCNc1cccc2sc3ccc(O)cc3c(=O)c12
inactive: dose: 12.5 mg/kg/injection, schedule: Q01DX005 (ip), vehicle: saline with Tween-80 113 % of control | dose: 25.0 mg/kg/injection, schedule: Q01DX005 (ip), vehicle: saline with Tween-80 115 % of control and 123 % of control | [4] 123 % of control and 124 % of control

Cn1c2ccc(F)cc2c(=O)c2c(O)cc3c(c21)C=CC(C)(C)O3
inactive: [9] 100 % of control | [10] 102 % of control | [11] 94 % of control
